Tests used:
human TLR2 = target: T1, human TLR2 (Homo sapiens, UniProt O60603); assay: TLR2 expression vector experiment: HEK 293 cells with NF-kappa B reporter and pDUO-hCD14/TLR2; type: cell-based; details: HEK 293 cells expressing TLR2 and CD14; 6 hours; FIG. 10B
T1 construct: host or cells: HEK 293 cells, transient transfection by electroporation
Description: HEK 293 cells were cultured in DMEM/F12 medium supplemented with fetal bovine serum (10%) and 1% penicillin-streptomycin at 37° C., under 5% CO2. Actively growing cells were transiently transfected with the appropriate plasmid(s) using electroporation (at 150 V and one 70-ms pulse). Following electroporation, cells were plated at a density of 5×10^4 cells in 200 μl/well of culture medium. After 48 hours, agents to be tested were added to transfected cells. Six hours after addition of samples, cells were harvested and luciferase activity measured. The NF-kappa B plasmid construct (pBIIXLUC) contained two copies of NF-kappa B motif from HIV/IgK. Plasmids co-expressing human CD14 and human TLR2 (pDUO-hCD14/TLR2) were purchased from InvivoGen. Zymosan was purchased from Sigma, Staphylococcus aureus peptidoglycan from Fluka and ultra pure Salmonella minnesota LPS from List Biological Laboratories, Inc.
FIGS. 10A-10B depict that AloeEx (batch 2-5-05) acts through TLR2. HEK 293 cells (cell line with minimal TLR expression) were transiently transfected with a luciferase reporter gene construct containing two binding sites for NF-kappa B, alone (FIG. 10A), or in combination with the pDUO-hCD14/TLR2 expression plasmid (FIG. 10B). […] Luciferase activity was determined 6 hours after addition of agents.

scald hyperalgesia = details: compared with phenylbutazone; cited from earlier work

T1 sequence (O60603 21-784): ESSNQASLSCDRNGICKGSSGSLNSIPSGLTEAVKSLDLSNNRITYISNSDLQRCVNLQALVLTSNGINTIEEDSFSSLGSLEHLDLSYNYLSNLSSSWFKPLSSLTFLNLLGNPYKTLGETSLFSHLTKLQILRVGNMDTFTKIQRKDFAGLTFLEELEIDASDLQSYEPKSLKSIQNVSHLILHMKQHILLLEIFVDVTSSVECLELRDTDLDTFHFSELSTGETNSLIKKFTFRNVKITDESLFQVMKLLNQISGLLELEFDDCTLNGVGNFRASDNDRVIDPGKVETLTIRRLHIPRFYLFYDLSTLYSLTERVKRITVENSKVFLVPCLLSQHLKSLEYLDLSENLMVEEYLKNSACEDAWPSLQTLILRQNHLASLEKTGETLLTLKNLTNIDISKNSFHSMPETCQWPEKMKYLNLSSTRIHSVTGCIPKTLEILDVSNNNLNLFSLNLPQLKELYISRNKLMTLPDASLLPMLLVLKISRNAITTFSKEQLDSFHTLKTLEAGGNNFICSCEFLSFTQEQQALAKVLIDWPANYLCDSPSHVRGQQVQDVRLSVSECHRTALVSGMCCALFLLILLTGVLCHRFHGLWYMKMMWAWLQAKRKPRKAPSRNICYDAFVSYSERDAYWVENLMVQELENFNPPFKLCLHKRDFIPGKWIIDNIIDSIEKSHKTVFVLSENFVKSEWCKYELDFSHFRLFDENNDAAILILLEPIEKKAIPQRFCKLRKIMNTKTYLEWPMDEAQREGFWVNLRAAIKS

Substance | activation of NF-kappa B (human TLR2) | inhibitory effect on scald hyperalgesia (scald hyperalgesia)
peptidoglycan | also activated NF-kappa B | –
O-acetylated-D-mannan [O-acetylated-D-mannan (T-2-HN)] | – | more marked inhibitory effect than phenylbutazone

From patent US10543247B2, “Aloe preparation for skin enhancement” (Woodcliff Skincare Solutions, Inc., priority 2007, dated 2020)
